Tests used:
[1] = target: ATP-dependent translocase ABCB1 (Homo sapiens, UniProt P08183); assay: (§1) TP_TRANSPORTER: Northern blot from primary hepatocytes; assay type: functional, cell-based, Hepatocyte
[2] = target: ATP-dependent translocase ABCB1 (Rattus norvegicus, UniProt P43245); assay: as §1; assay type: functional, cell-based, Hepatocyte
Chain of ATP-dependent translocase ABCB1 (Rattus norvegicus, UniProt P43245) (P43245 whole entry): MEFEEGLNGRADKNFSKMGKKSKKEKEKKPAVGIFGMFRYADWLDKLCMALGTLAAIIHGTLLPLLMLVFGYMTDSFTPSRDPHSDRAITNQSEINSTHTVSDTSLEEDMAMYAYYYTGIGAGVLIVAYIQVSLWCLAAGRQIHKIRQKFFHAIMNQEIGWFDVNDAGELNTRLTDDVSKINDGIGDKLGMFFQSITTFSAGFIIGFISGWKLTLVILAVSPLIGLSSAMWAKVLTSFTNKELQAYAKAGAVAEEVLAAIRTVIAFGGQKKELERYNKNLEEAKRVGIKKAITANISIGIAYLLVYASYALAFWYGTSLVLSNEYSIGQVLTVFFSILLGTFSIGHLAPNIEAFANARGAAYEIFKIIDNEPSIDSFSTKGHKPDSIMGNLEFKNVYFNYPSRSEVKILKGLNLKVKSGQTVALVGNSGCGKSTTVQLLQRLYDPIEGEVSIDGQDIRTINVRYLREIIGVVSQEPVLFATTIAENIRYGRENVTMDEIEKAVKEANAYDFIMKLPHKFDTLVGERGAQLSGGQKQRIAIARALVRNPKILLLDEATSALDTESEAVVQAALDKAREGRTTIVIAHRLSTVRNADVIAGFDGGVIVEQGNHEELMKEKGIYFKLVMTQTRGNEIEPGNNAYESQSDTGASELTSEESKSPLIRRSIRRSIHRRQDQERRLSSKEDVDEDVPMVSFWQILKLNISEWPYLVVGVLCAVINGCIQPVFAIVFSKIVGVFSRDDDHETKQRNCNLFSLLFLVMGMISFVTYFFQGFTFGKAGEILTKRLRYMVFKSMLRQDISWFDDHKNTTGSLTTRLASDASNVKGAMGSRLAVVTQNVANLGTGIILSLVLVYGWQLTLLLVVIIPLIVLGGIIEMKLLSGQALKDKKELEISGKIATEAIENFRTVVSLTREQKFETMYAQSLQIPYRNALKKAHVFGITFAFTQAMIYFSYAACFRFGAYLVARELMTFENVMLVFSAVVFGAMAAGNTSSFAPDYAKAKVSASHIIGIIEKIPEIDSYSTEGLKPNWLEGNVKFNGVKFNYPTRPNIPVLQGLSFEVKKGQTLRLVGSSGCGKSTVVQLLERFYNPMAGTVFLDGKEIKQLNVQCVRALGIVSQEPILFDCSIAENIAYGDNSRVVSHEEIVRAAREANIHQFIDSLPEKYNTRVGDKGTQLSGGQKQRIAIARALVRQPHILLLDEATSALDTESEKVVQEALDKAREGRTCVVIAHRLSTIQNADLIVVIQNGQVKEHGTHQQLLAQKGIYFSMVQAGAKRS

Chain of ATP-dependent translocase ABCB1 (Homo sapiens, UniProt P08183) (P08183 whole entry): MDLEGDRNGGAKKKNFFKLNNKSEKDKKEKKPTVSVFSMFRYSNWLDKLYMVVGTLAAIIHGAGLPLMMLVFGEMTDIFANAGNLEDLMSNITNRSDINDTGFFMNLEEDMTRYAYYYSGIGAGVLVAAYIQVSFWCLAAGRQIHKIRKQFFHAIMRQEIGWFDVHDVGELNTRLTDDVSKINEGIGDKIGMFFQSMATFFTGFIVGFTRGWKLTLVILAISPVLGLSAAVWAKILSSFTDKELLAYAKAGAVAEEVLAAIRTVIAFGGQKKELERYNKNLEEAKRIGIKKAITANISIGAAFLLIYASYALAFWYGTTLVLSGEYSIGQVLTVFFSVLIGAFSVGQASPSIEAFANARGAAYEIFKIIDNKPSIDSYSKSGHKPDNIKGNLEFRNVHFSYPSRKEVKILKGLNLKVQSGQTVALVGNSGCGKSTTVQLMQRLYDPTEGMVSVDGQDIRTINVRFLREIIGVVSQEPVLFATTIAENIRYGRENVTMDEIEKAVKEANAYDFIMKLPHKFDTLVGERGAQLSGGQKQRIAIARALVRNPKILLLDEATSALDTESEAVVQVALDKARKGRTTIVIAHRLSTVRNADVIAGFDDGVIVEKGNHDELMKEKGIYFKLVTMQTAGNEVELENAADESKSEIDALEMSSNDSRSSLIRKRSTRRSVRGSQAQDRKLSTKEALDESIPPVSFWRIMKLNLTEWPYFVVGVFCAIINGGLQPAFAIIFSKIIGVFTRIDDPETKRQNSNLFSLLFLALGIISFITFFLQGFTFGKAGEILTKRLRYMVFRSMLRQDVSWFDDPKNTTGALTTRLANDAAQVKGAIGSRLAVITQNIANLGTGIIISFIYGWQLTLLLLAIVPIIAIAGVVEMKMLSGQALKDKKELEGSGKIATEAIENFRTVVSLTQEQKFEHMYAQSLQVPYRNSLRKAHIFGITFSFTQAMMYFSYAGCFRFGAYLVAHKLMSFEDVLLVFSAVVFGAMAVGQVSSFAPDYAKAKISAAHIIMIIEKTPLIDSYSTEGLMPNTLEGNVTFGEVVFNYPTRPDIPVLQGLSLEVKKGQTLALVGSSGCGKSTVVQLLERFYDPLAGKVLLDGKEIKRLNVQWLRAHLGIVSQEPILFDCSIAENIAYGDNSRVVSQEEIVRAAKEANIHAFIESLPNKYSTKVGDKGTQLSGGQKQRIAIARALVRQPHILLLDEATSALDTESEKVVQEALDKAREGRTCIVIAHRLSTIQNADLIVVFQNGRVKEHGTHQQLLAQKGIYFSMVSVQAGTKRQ

## CC(=O)Nc1ccc2c(c1)Cc1ccccc1-2 [2-ACETYLAMINOFLUORENE]
[1]
  Activity: is not an inducer [-]
[2]
  Activity: inducer [+]
